From patent US5985603A, “P2x receptor DNA and protein sequence” (Glaxo Group Limited, priority 1994, dated 1999) come the findings set out here.

SMILES strings stand for the structures.

This test has as its target T1, rat superior cervical ganglion P2X receptor (clone 3) (Rattus norvegicus, UniProt P51577).
T1 construct: The insert appeared to be a full length cDNA; expressed in transfected cells; host or cells: HEK293 cells transfected with pcDNA3 construct p464 (also oocytes injected with in vitro transcribed RNA)
T1 sequence (P51577 1-388): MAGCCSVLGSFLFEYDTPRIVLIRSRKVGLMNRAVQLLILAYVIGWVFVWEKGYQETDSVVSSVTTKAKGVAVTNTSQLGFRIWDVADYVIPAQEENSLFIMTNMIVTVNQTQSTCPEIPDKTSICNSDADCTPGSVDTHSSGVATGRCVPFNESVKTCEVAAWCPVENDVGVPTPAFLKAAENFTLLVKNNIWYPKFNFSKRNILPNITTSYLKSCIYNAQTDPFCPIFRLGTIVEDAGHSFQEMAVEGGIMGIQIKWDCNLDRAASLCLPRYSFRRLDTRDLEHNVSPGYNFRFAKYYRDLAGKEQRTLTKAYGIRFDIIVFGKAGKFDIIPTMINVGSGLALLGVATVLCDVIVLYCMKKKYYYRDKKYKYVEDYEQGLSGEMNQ
As to the kind of experiment: functional properties of cloned P2X receptors (electrical recordings): clone 3. The test is classed as cell-based.

As usually defined, the EC50 is the concentration needed to bring the measured effect to its halfway point. Higher therefore signals a less potent agent.

`Nc1ncnc2c1ncn2[C@@H]1O[C@H](COP(=O)([O-])OP(=O)([O-])OP(=O)([O-])[O-])[C@@H](O)[C@H]1O.[Mg+2].[Mg+2]` [ATP, adenosine 5'-triphosphate magnesium salt] had an EC50 of 11 µM. Further, the “decline of currents (desensitisation) during application” value (applications of several seconds) was “little or no decline during applications of several seconds”.
